Test results: article PMC10454728, “A Comparative Study on the Lysosomal Cation Channel TMEM175 Using Automated Whole-Cell Patch-Clamp, Lysosomal Patch-Clamp, and Solid Supported Membrane-Based Electrophysiology: Functional Characterization and High-Throughput Screening Assay Development” (International Journal of Molecular Sciences, 2023)

Columns and labels:
TMEM175 [1] = molecular target: T1, TMEM175 (Homo sapiens, UniProt Q9BSA9); assay: Manual lysosomal patch-clamp (LPC) on vacuolin-1 enlarged lysosomes; format: biochemical
T1 sequence (Q9BSA9 1-504): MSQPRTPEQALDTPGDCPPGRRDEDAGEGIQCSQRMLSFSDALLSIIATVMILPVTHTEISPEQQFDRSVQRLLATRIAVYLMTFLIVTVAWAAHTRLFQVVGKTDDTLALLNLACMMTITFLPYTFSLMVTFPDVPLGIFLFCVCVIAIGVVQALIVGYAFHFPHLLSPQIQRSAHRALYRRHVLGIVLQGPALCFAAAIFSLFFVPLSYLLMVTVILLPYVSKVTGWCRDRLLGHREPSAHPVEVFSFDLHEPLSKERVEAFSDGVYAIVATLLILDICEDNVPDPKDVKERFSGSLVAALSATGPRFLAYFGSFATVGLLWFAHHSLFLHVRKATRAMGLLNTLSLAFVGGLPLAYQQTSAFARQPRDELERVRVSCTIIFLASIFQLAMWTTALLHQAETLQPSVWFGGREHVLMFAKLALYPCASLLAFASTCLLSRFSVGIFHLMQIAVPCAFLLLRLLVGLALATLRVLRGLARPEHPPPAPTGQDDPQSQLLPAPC
Procedure: Since both technologies apply different assay conditions and samples, the origin of the discrepancies may not be concluded. To investigate potential systematic variations among different assay technologies, namely, whole-cell APC, SSME on purified lysosomes, and manual LPC, we conducted a comparative analysis of the potency and maximum potentiation of a set of eight blinded compounds and SC-79 (Figure 8, Table 4). SSME recordings were performed using the same procedures as described for the tool compounds above. However, adjustments were made to the voltage application protocol in APC, as outlined in the Methods section. Lysosomal patch-clamp was performed using a manual setup. In contrast to APC and SSME recordings, the recorded current in LPC represents H^+ efflux from lysosomes in the presence of a physiological pH gradient (details are provided in the Methods section).
Experiments were carried out in whole-lysosome configuration in voltage-clamp mode, using a modified patch-clamp method, as described by Chen et al..
Briefly, cells were treated overnight with 5 µM vacuolin-1 to increase the size of the lysosomes. Mechanical isolation was performed using a patch pipette pressed against a selected cell, and quickly pulled away to slice the cell membrane to release the enlarged lysosomes into the dish. After the dissection of the lysosomes, the glass electrode was exchanged for a recording electrode. After the formation of a giga-seal and compensation of capacitance transients, voltage steps of several hundred millivolts with millisecond duration were applied to break into the vacuolar membrane.
The bath solution representing the cytosol contained 10 mM HEPES (pH 7.2), 145 mM K-methanesulfonate and 5 mM KCl. The pipette solution representing the lysosomal lumen contained 10 mM MES (pH 5.5), 145 mM Cs-methanesulfonate, 5 mM KCl, and 10 mM EGTA.
After the reappearance of capacitance transients to verify the whole-lysosome configuration, the TMEM175 currents were recorded using a ramp protocol from −100 to +100 mV with 1 s of duration, digitized at 20 kHz. The ramp protocol was repeated in 4 s intervals, keeping the lysosomes at 0 mV in between. We used the outward current at +100 mV as a read-out, essentially observing the flux of H^+ and Cs^+ from the lysosome into the cytosol. […]
Before averaging across datasets obtained from N = 3 lysosomes, we normalized the currents to the control current. Datasets containing 6 or 9 compound concentrations were recorded in two or three sets of experiments with 3 compound concentrations per lysosome. All experiments were conducted at room temperature, and recordings were analyzed with pClamp 10.7 and GraphPad Prism 8.

TMEM175 [2] = molecular target: T1, TMEM175; assay: SSME cation selectivity assay with 4-AP block (SURFE2R 96SE); format: biochemical; settings: 10 mM 4-AP
Excerpt: We performed the same experiment on lysosomes purified from HEK293 cells overexpressing TMEM175 (TMEM175 sample, Figure 2B) and control lysosomes that were purified from HEK293 cells expressing endogenous TMEM175 (control sample, Figure 2C), using a low sample dilution to enhance the signal-to-noise.
We also performed a similar series of experiments on the SURFE^2R 96SE, essentially reproducing the results found with the SURFE^2R N1 (Figure 2E). […] Supplementary Figure S2 contains representative current traces and additional experimental details.
We applied a solution exchange from 50 mM NMDG-Cl to 50 mM of a different Cl salt at pH 7.6; (B) Representative current traces recorded with the TMEM175 sample. All traces are recorded from the same sensor; (C) Representative current traces recorded with the control sample. Currents reflect background signals (artifacts) resulting from ion–membrane interactions; (D) Average peak currents and SD for N = 5 sensors recorded with the TMEM175 and control samples; (E) Average peak currents and SEM for N = 16 sensors, recorded with the TMEM175 (left) and control (right) sample. […]
Ion selectivity of TMEM175 recorded on the SURFE2R 96SE. Representative current traces recorded using different cation species on TMEM175 and control samples using the SURFE2R 96SE. […]

control HEK293 UT cells = assay: Whole-cell APC off-target effects on control cells; format: cell-based, human; settings: 50 µM
Procedure: Figure 7 Whole-cell APC recordings on TMEM175: (A) Schematic representation of assay conditions in the Cs^+ flux assay. The ions known to permeate through TMEM175 in the external and internal solutions are indicated; (B) Voltage protocol and time points for the read-out of inward and outward currents; (C) The compound application protocol consists of the recording of the TMEM175 baseline current. […] Success rates were determined based on the QC criteria provided in the Methods section. […] We determined average values, AVGpos and AVGneg, and standard deviations, SDpos and SDneg, of the recorded currents. […] Datapoints were normalized to the TMEM175 baseline current before compound addition and then averaged across at least N = 5 cells. Error bars represent the SEM obtained from automated data analysis using DataControl384. […] The compound effects on control cells were between +10% and -40% compared to the control baseline current. […]. […] Therefore, off-target compound effects seem to be negligible in the APC assay.

## CCOC(=O)C1=C(N)Oc2ccc(Cl)cc2C1C(C#N)C(=O)OCC (stereo not drawn) [SC-79]
TMEM175 [1]; Table 4 fit, currents normalized to current before compound
  Imax − Imin (nA), LPC: 0.91 ± 0.52 nA
TMEM175 [1]; fixed to 1 in the fit
  n (Hill coefficient), LPC: 1
TMEM175 [1]; from dose-response fit, Figure 8
  Potentiation, LPC: 91 ± 52%
TMEM175 [1]; outward current at +100 mV, pipette pH 5.5 / bath pH 7.2
  EC50: 21 ± 32 µM

## Nc1ccncc1 [4-AP, 4-aminopyridine]
TMEM175 [2]
  Block of TMEM175 net currents for K+, Rb+ and Cs+: complete blockade

## [Cl-].[Cl-].[Zn+2] [Zn, ZnCl2]
Control HEK293 UT cells
  Decrease of baseline current of control cells: 30–40%
